Experimental data published in patent US20040209777A1, “Agents for improving the qualities of fruits/grains” (priority 2001, published 2004).
Like-named read-outs stand apart in the source and are kept apart here.

Tests used:
Japanese pear “Kousui” [1] = details: observed on February 5
Procedure: The flower bud differentiation rate was surveyed by observing winter buds with the unaided eye for each of long fruiting branches and short fruiting branches for every section on February 5 of the next year. The flower bud differentiation rate was calculated as a proportion of the flower bud number (mixed flower buds) to the total winter bud number, provided that the last-year branch was regarded as 1 unit, to which branch a long fruiting branch or a short fruiting branch attached.

Japanese pear “Kousui” [2] = test system: Japanese pear “Kousui”
Procedure: Regarding the sugar concentration of fruits, the sugar content (Brix) of the fruits harvested on August 24 of the year. The content of the individual sugar species was measured by selecting 10 fruits from each section to obtain fruit juices prepared by pressing the fruits, filtering each juice with a membrane filter having a 0.45 μm diameter, and then, quantifying the sugar content for every sugar species by HPLC (Column: “Shim-pack SCR-101C”, Column temperature: 80° C., Solvent: water (1 mL/min); and Detector: RI).

Japanese pear “Kousui” [3] = test system: Japanese pear “Kousui”; remark: listed apart in the source
[4] = test system: adult grape tree (cultivar Cabernet sauvignon)
Procedure: The aqueous proline solution, which had been prepared by dissolving the high purity proline as described above into water to provide a 200 ppm concentration and adding 10 mL of “ATLOX BI” (wetting agent) thereto, was sprayed on the adult grape tree (cultivar Cabernet sauvignon) with an interval of 15 days during the period from the end of June to the middle of September in a year, which is the véraison period as the fruit growing period.
The sprayed amount was a certain amount to allow the solution to drop down from the leaf surfaces. The control section was assigned to another non-sprayed adult tree. Both the test section and the control section were harvested on October 25 in that year to analyze sweetness and a red-colored state. Sweetness was evaluated in terms of the sugar content (Brix) of a juice prepared by mixing and pulverizing seed-removed fruits and pericarps. Colored state (red) was evaluated by measuring a light absorbance of the juice at 522 nm.
According to the market evaluation for a grape cultivar for red wine and a red grape cultivar such as Kyohou, the stronger the coloration (red) of the pericarp is, the better the quality is.

Japanese pear “Kousui” [5] = details: average Score (+3 to −3) of sprayed product, non-sprayed product = Score 0
Procedure: In this connection, the scores of the sprayed product shown in Table 5 were counted by the following way. I.e., this was carried out in a paired comparison method where the “non-sprayed product” was assigned to Score 0 (control), and the “sprayed product” was scored by 7-class evaluation consisting of Scores +3, +2, +1, 0, −1, −2, and −3, employing a plurality of panels. Next, average values of the results of scoring the “sprayed product” by the plurality of panels were calculated and the average values were assigned to the Scores of the “sprayed product” in Table 5.

[6] = pear fruit juice, harvested on August 24, HPLC, n = 10
[7] = grape juice, harvested October 25, 200 ppm proline sprayed every 15 days

## O=C(O)[C@@H]1CCCN1 [proline, L-proline]
Japanese pear “Kousui” [1]; long fruiting branch, Total
  flower bud differentiation rate: 39.83%
Japanese pear “Kousui” [1]; long fruiting branch, Tree No. 1
  flower bud differentiation rate: 40.60%
Japanese pear “Kousui” [1]; long fruiting branch, Tree No. 2
  flower bud differentiation rate: 39.05%
Japanese pear “Kousui” [1]; short fruiting branch, Total
  flower bud differentiation rate: 39.38%
Japanese pear “Kousui” [1]; short fruiting branch, Tree No. 1
  flower bud differentiation rate: 40.83%
Japanese pear “Kousui” [1]; short fruiting branch, Tree No. 2
  flower bud differentiation rate: 37.93%
Japanese pear “Kousui” [2]; [6]
  Fructose content in the fruits: 56.74 mg/mL
  Glucose content in the fruits: 18.67 mg/mL
  Sorbitol content in the fruits: 28.83 mg/mL
  Sucrose content in the fruits: 62.09 mg/mL
  Total individual sugar contents in the fruits: 166.12 mg/mL
Japanese pear “Kousui” [2]; pear fruits harvested on August 24, 200 ppm proline sprayed
  Sugar content (Brix): 11.7 ± 0.1 Brix
Japanese pear “Kousui” [2]; pear fruits harvested on August 24, proline-treated section
  pericarp color: somewhat red pericarp
Japanese pear “Kousui” [3]; Japanese pear “Kousui”, 200 ppm proline sprayed on leaves
  drug damage caused by spraying: any drug damage caused by spraying has not been observed
Japanese pear “Kousui” [3]; Total of all fruit sizes, Total of harvest days, 200 ppm proline sprayed on leaves
  Harvested number of pears: 638
Japanese pear “Kousui” [3]; Total of all fruit sizes, harvest day August 18, 200 ppm proline sprayed on leaves
  Harvested number of pears: 130
Japanese pear “Kousui” [3]; Total of all fruit sizes, harvest day August 21, 200 ppm proline sprayed on leaves
  Harvested number of pears: 185
Japanese pear “Kousui” [3]; Total of all fruit sizes, harvest day August 24, 200 ppm proline sprayed on leaves
  Harvested number of pears: 323
Japanese pear “Kousui” [3]; fruit size 2L, Total of harvest days, 200 ppm proline sprayed on leaves
  Harvested number of pears: 115
Japanese pear “Kousui” [3]; fruit size 2L, harvest day August 18, 200 ppm proline sprayed on leaves
  Harvested number of pears: 33
Japanese pear “Kousui” [3]; fruit size 2L, harvest day August 21, 200 ppm proline sprayed on leaves
  Harvested number of pears: 46
Japanese pear “Kousui” [3]; fruit size 2L, harvest day August 24, 200 ppm proline sprayed on leaves
  Harvested number of pears: 36
Japanese pear “Kousui” [3]; fruit size 3L, Total of harvest days, 200 ppm proline sprayed on leaves
  Harvested number of pears: 233
Japanese pear “Kousui” [3]; fruit size 3L, harvest day August 18, 200 ppm proline sprayed on leaves
  Harvested number of pears: 46
Japanese pear “Kousui” [3]; fruit size 3L, harvest day August 21, 200 ppm proline sprayed on leaves
  Harvested number of pears: 64
Japanese pear “Kousui” [3]; fruit size 3L, harvest day August 24, 200 ppm proline sprayed on leaves
  Harvested number of pears: 123
Japanese pear “Kousui” [3]; fruit size 4L, Total of harvest days, 200 ppm proline sprayed on leaves
  Harvested number of pears: 160
Japanese pear “Kousui” [3]; fruit size 4L, harvest day August 18, 200 ppm proline sprayed on leaves
  Harvested number of pears: 25
Japanese pear “Kousui” [3]; fruit size 4L, harvest day August 21, 200 ppm proline sprayed on leaves
  Harvested number of pears: 32
Japanese pear “Kousui” [3]; fruit size 4L, harvest day August 24, 200 ppm proline sprayed on leaves
  Harvested number of pears: 103
Japanese pear “Kousui” [3]; fruit size 5L, Total of harvest days, 200 ppm proline sprayed on leaves
  Harvested number of pears: 31
Japanese pear “Kousui” [3]; fruit size 5L, harvest day August 18, 200 ppm proline sprayed on leaves
  Harvested number of pears: 0
Japanese pear “Kousui” [3]; fruit size 5L, harvest day August 21, 200 ppm proline sprayed on leaves
  Harvested number of pears: 4
Japanese pear “Kousui” [3]; fruit size 5L, harvest day August 24, 200 ppm proline sprayed on leaves
  Harvested number of pears: 27
Japanese pear “Kousui” [3]; fruit size L, Total of harvest days, 200 ppm proline sprayed on leaves
  Harvested number of pears: 55
Japanese pear “Kousui” [3]; fruit size L, harvest day August 18, 200 ppm proline sprayed on leaves
  Harvested number of pears: 19
Japanese pear “Kousui” [3]; fruit size L, harvest day August 21, 200 ppm proline sprayed on leaves
  Harvested number of pears: 18
Japanese pear “Kousui” [3]; fruit size L, harvest day August 24, 200 ppm proline sprayed on leaves
  Harvested number of pears: 18
Japanese pear “Kousui” [3]; fruit size M, Total of harvest days, 200 ppm proline sprayed on leaves
  Harvested number of pears: 20
Japanese pear “Kousui” [3]; fruit size M, harvest day August 18, 200 ppm proline sprayed on leaves
  Harvested number of pears: 0
Japanese pear “Kousui” [3]; fruit size M, harvest day August 21, 200 ppm proline sprayed on leaves
  Harvested number of pears: 11
Japanese pear “Kousui” [3]; fruit size M, harvest day August 24, 200 ppm proline sprayed on leaves
  Harvested number of pears: 9
Japanese pear “Kousui” [3]; fruit size S, Total of harvest days, 200 ppm proline sprayed on leaves
  Harvested number of pears: 24
Japanese pear “Kousui” [3]; fruit size S, harvest day August 18, 200 ppm proline sprayed on leaves
  Harvested number of pears: 7
Japanese pear “Kousui” [3]; fruit size S, harvest day August 21, 200 ppm proline sprayed on leaves
  Harvested number of pears: 10
Japanese pear “Kousui” [3]; fruit size S, harvest day August 24, 200 ppm proline sprayed on leaves
  Harvested number of pears: 7
Japanese pear “Kousui” [3]; proline-treated section vs control section
  ripening of fruits (fruit number for every harvest day): fruits ripened earlier as a tendency
[4]; [7]
  Colored degree (OD at 522 nm): 0.14 OD at 522 nm
  Sugar content (Brix): 20.3 Brix
[4]; grape juice, proline-sprayed section vs control section
  increment of anthocyanin content in the juice: about 20%
[4]; grape, proline-sprayed section vs control section
  difference in the size of fruits: No difference
Japanese pear “Kousui” [5]
  Apparent color: 0.06
  Comprehensive evaluation: 0.74
  Hardness: −0.13
  Juiciness: 0.02
  Preferableness of sourness: −0.06
  Preferableness of sweetness: 0.43
  Preferableness of whole aroma: 0.64
  Preferableness of whole feeling upon eating: 0.31
  Preferableness of whole flavor: 0.50
  Preferableness of whole taste: 0.61
  Strength of sourness: −0.19
  Strength of sweetness: 0.95
  Strength of whole aroma: 0.26
  Strength of whole flavor: 0.57
  Strength of whole taste: 0.79
  Tongue feeling: −0.19
  Unripe flavor: −0.41
